The values that follow come from patent US8703804B2, “Ryanodine receptor inhibitors and methods relating thereto” (UTI Limited Partnership, priority 2006, dated 2014).

“Also recorded” adds a separate entry of the source. Like-named read-outs stand apart in the source and are kept apart here.

The subject of one test is RyR2. The experiment in a line: Initial investigations studying RyR2: suppression of SOICR by analogues. Type of test: cell-based.
The target of test [1] is RyR2 channel (Homo sapiens, UniProt Q92736). As to conditions: Honen et al., 2003; cited from earlier work.
For test [2] the following is noted: patients with heart failure; Miller, 2003; cited from earlier work.
The test system of test [3] is SOICR in rat ventricular myocytes. The experiment in a line: SOICR in rat ventricular myocytes (single cell Ca2+ imaging, fluo-4). As to conditions: for IC50: Rattus norvegicus, Ventricular myocyte. Type of test: cell-based. As for the experimental part:
Rat ventricular myocytes were loaded with a fluorescent Ca^2+ indicator, fluo 4-AM, and incubated at a high concentration of external Ca^2+ (10 mM) to induced SR Ca^2+ overload and SOICR, which manifests as Ca^2+ oscillations.
In the experiments shown in FIG. 3, rat ventricular myocytes were loaded with a fluorescent Ca^2+ indicator, fluo-4, and incubated at a high concentration of extracellular Ca^2+ (10 mM) to induce SR Ca^2+ overload and SOICR, which manifests as Ca^2+ waves/oscillations. These Ca^2+ oscillations were monitored by a single cell Ca^2+ imaging technique.
(§1) Further verification of whether these identified compounds also work in cardiac cells, the effect of these compounds on SOICR in rat ventricular myocytes may also be determined. Rat ventricular myocytes may be isolated according to the standard procedure using enzymatic digestion. Freshly isolated cells are loaded with a fluorescent Ca^2+ dye, fluo 4-AM, and bathed at high concentrations of extracellular Ca^2+ (5-10 mM) to induce SR Ca^2+ overload and SOICR. The intracellular Ca^2+ transients as a result of SOICR will be monitored by measuring the fluorescent intensity using a fluorescent microscope. Various concentrations of the selected compounds (10 nM to 100 μM) will be applied and the resulting changes in intracellular Ca^2+ transients will be determined and analyzed.

A further test concerns the target β-adrenergic receptors. The note with it: Yao et al., 2003; read-out: IC50 of β-blocking activity; cited from earlier work.
For the next test, the system named is β-adrenergic receptor. As to the kind of experiment: β-blocking: isoproterenol-induced phosphorylation of RyR2 at serine-2030 in rat cardiac myocytes (Western blot). The class given is cell-based. The note with it: 200 nM isoproterenol; for concentration that completely blocks the β-adrenergic receptor: S2030 phosphorylation. As for the experimental part:
The β-adrenergic receptors were then stimulated by the addition of 200 nM isoproterenol (Iso) in the continued presence of drugs for 30 min at 37° C. Whole cell lysates were prepared and used for Western blotting (WB) analyses.
It is known that stimulation of the β-adrenergic receptor (AR) by isoproterenol leads to the activation of the cAMP/protein kinase A (PKA) signaling pathway, which, in turn, results in the phosphorylation by PKA of various protein targets, including the RyR2 channel. RyR2 is specifically phosphorylated at the residue serine-2030 (S2030) upon β-AR stimulation by isoproterenol (Xiao et al., 2005). […] To do this, freshly isolated rat cardiac myocytes are pre-treated with various concentrations of the selected compounds for 5 min, followed by stimulation of the β-AR with 100-200 nM isoproterenol in the continued presence of the selected compounds for 30 min. Whole cell lysates are then prepared and used for determining the level of phosphorylation of RyR2 at S2030 by Western blotting using a site- and phospho-specific antibody against the phosphorylated S2030 site.
(In general: In western blotting, separated proteins are transferred to a membrane and probed.)

The test system of the next test is RyR2-R4496C KI mice. As to the kind of experiment: Stress-induced ventricular tachycardia in RyR2-R4496C knock-in mice (CPVT model). Type of test: in vivo, mouse. The note with it: 16 mg/kg/day i.p. for 5 days, preliminary. The procedure:
The electrocardiograms (ECG) of the R4496C KI mice were continuously monitored by using telemetric ECG recordings before and after the injection of epinephrine and caffeine. The incidence of ventricular tachycardia (VT) was assessed by determining the duration of VT occurring during a 2-min period (% of time).
In order to assess the efficacy of compounds of the present invention in suppressing cardiac arrhythmia at the animal level, genetically engineered knock-in mice were generated harboring RyR2 mutations that are associated with cardiac arrhythmia and sudden death. A heterozygous knock-in mouse line harboring the disease-causing RyR2 mutation, R4496C, has been prepared. Similar to patients who carry the mutation, the R4496C mutant mice are likely prone to stress-induced cardiac arrhythmia and sudden death. If this is the case, this R4496C mouse model may be used to test if compounds of the present invention are able to reduce the incidence of stress-induced cardiac arrhythmia and sudden death. Briefly, mutant mice will be pretreated with or without a positive compound identified above. Epinephrine and caffeine will be injected into the mutant mice to induce cardiac arrhythmia. Telemetric ECG recordings will be used to monitor the cardiac activity at rest and during epinephrine and caffeine perfusion. […]

A further test concerns the target T1, RyR2-N4104K mutant (Mus musculus, UniProt E9Q401, N4103K).
T1 construct: expressed in transfected cells; host or cells: HEK293
As to the kind of experiment: SOICR in HEK293 cells expressing the N4104K RyR2 mutant. The class given is cell-based. As for the experimental part:
(§2) Intracellular Ca^2+ transients were monitored using single cell Ca^2+ imaging.
(§3) HEK293 cells may be loaded with a fluorescent Ca^2+ dye, fura-2-AM. SOICR, which manifests in the form of Ca^2+ oscillations, is continuously monitored by measuring the fluorescent changes using the single cell Ca^2+ imaging technique. Cells will be perfused with increasing concentrations (10 nM to 100 μM) of the compound. The frequency and amplitude of Ca^2+ oscillations under each condition will be determined and analyzed. Compounds that inhibit SOICR are expected to reduce the frequency of Ca^2+ oscillations, or abolish Ca^2+ oscillations.
as §1, with “Freshly isolated cells are loaded with a fluorescent Ca^2+ dye, fluo 4-AM, and bathed at high concentrations of extracellular Ca^2+ (5-10 mM) to induce SR Ca^2+ overload and SOICR.” left out

A further test deals with T2, RyR2-R4496C mutant (Mus musculus, UniProt E9Q401, R4495C).
T2 construct: expressed in transfected cells; host or cells: HEK293
As to the kind of experiment: SOICR in HEK293 cells expressing RyR2-R4496C mutant (fura-2 single cell Ca2+ imaging). Type of test: cell-based. As to conditions: up to 500 μM.
Text: as §2
This bioassay takes advantage of the finding that HEK293 cells expressing RyR2 mutants associated with cardiac arrhythmia and sudden death, readily display SOICR at elevated extracellular Ca^2+. […] This assay may be employed to determine the dose-dependent effect of each proposed compound on SOICR.
as §3

For a further test, the target named is T3, mutant RyR2 channels (Mus musculus, UniProt E9Q401, R4495C).
T3 construct: expressed in transfected cells; host or cells: HEK293 (cell lysate, detergent-solubilised)
As to the kind of experiment: [3H]ryanodine binding, basal channel activity of RyR2. Type of test: biochemical.
Text: as §2
[^3H]Ryanodine binding has been widely used as a functional assay for assessing the activity of the RyR2 channel. […] These [^3H]ryanodine binding studies reveal whether suppression of SOICR by a compound is mediated by inhibition of the RyR2 channel activity.

Test [4] addresses T4, RyR2 channel (Mus musculus, UniProt E9Q401, R4495C).
T4 construct: expressed in transfected cells; host or cells: HEK293 (cell lysate, detergent-solubilised)
As to the kind of experiment: Ca2+ dependence of [3H]ryanodine binding (sensitivity of RyR2 to Ca2+ activation, CICR). Type of test: biochemical. As to conditions: 300 μM (FIG. 4D).
Text: as §2
Alternatively, the effect of compounds on CICR may be determined using [^3H]ryanodine binding. As CICR is dependent, to a large extent, on the sensitivity of the RyR2 channel to activation by Ca^2+, the effect of a compound on CICR may be determined by assessing the impact of the compound on the sensitivity of the RyR2 channel to Ca^2+ activation. To this end, [^3H]ryanodine binding to the RyR2 channel in a wide range of Ca^2+ concentrations may be measured. The sensitivity (EC50) of [^3H]ryanodine binding to RyR2 in the absence and presence of a particular compound may be determined.

T1 sequence (E9Q401 whole entry N4103K): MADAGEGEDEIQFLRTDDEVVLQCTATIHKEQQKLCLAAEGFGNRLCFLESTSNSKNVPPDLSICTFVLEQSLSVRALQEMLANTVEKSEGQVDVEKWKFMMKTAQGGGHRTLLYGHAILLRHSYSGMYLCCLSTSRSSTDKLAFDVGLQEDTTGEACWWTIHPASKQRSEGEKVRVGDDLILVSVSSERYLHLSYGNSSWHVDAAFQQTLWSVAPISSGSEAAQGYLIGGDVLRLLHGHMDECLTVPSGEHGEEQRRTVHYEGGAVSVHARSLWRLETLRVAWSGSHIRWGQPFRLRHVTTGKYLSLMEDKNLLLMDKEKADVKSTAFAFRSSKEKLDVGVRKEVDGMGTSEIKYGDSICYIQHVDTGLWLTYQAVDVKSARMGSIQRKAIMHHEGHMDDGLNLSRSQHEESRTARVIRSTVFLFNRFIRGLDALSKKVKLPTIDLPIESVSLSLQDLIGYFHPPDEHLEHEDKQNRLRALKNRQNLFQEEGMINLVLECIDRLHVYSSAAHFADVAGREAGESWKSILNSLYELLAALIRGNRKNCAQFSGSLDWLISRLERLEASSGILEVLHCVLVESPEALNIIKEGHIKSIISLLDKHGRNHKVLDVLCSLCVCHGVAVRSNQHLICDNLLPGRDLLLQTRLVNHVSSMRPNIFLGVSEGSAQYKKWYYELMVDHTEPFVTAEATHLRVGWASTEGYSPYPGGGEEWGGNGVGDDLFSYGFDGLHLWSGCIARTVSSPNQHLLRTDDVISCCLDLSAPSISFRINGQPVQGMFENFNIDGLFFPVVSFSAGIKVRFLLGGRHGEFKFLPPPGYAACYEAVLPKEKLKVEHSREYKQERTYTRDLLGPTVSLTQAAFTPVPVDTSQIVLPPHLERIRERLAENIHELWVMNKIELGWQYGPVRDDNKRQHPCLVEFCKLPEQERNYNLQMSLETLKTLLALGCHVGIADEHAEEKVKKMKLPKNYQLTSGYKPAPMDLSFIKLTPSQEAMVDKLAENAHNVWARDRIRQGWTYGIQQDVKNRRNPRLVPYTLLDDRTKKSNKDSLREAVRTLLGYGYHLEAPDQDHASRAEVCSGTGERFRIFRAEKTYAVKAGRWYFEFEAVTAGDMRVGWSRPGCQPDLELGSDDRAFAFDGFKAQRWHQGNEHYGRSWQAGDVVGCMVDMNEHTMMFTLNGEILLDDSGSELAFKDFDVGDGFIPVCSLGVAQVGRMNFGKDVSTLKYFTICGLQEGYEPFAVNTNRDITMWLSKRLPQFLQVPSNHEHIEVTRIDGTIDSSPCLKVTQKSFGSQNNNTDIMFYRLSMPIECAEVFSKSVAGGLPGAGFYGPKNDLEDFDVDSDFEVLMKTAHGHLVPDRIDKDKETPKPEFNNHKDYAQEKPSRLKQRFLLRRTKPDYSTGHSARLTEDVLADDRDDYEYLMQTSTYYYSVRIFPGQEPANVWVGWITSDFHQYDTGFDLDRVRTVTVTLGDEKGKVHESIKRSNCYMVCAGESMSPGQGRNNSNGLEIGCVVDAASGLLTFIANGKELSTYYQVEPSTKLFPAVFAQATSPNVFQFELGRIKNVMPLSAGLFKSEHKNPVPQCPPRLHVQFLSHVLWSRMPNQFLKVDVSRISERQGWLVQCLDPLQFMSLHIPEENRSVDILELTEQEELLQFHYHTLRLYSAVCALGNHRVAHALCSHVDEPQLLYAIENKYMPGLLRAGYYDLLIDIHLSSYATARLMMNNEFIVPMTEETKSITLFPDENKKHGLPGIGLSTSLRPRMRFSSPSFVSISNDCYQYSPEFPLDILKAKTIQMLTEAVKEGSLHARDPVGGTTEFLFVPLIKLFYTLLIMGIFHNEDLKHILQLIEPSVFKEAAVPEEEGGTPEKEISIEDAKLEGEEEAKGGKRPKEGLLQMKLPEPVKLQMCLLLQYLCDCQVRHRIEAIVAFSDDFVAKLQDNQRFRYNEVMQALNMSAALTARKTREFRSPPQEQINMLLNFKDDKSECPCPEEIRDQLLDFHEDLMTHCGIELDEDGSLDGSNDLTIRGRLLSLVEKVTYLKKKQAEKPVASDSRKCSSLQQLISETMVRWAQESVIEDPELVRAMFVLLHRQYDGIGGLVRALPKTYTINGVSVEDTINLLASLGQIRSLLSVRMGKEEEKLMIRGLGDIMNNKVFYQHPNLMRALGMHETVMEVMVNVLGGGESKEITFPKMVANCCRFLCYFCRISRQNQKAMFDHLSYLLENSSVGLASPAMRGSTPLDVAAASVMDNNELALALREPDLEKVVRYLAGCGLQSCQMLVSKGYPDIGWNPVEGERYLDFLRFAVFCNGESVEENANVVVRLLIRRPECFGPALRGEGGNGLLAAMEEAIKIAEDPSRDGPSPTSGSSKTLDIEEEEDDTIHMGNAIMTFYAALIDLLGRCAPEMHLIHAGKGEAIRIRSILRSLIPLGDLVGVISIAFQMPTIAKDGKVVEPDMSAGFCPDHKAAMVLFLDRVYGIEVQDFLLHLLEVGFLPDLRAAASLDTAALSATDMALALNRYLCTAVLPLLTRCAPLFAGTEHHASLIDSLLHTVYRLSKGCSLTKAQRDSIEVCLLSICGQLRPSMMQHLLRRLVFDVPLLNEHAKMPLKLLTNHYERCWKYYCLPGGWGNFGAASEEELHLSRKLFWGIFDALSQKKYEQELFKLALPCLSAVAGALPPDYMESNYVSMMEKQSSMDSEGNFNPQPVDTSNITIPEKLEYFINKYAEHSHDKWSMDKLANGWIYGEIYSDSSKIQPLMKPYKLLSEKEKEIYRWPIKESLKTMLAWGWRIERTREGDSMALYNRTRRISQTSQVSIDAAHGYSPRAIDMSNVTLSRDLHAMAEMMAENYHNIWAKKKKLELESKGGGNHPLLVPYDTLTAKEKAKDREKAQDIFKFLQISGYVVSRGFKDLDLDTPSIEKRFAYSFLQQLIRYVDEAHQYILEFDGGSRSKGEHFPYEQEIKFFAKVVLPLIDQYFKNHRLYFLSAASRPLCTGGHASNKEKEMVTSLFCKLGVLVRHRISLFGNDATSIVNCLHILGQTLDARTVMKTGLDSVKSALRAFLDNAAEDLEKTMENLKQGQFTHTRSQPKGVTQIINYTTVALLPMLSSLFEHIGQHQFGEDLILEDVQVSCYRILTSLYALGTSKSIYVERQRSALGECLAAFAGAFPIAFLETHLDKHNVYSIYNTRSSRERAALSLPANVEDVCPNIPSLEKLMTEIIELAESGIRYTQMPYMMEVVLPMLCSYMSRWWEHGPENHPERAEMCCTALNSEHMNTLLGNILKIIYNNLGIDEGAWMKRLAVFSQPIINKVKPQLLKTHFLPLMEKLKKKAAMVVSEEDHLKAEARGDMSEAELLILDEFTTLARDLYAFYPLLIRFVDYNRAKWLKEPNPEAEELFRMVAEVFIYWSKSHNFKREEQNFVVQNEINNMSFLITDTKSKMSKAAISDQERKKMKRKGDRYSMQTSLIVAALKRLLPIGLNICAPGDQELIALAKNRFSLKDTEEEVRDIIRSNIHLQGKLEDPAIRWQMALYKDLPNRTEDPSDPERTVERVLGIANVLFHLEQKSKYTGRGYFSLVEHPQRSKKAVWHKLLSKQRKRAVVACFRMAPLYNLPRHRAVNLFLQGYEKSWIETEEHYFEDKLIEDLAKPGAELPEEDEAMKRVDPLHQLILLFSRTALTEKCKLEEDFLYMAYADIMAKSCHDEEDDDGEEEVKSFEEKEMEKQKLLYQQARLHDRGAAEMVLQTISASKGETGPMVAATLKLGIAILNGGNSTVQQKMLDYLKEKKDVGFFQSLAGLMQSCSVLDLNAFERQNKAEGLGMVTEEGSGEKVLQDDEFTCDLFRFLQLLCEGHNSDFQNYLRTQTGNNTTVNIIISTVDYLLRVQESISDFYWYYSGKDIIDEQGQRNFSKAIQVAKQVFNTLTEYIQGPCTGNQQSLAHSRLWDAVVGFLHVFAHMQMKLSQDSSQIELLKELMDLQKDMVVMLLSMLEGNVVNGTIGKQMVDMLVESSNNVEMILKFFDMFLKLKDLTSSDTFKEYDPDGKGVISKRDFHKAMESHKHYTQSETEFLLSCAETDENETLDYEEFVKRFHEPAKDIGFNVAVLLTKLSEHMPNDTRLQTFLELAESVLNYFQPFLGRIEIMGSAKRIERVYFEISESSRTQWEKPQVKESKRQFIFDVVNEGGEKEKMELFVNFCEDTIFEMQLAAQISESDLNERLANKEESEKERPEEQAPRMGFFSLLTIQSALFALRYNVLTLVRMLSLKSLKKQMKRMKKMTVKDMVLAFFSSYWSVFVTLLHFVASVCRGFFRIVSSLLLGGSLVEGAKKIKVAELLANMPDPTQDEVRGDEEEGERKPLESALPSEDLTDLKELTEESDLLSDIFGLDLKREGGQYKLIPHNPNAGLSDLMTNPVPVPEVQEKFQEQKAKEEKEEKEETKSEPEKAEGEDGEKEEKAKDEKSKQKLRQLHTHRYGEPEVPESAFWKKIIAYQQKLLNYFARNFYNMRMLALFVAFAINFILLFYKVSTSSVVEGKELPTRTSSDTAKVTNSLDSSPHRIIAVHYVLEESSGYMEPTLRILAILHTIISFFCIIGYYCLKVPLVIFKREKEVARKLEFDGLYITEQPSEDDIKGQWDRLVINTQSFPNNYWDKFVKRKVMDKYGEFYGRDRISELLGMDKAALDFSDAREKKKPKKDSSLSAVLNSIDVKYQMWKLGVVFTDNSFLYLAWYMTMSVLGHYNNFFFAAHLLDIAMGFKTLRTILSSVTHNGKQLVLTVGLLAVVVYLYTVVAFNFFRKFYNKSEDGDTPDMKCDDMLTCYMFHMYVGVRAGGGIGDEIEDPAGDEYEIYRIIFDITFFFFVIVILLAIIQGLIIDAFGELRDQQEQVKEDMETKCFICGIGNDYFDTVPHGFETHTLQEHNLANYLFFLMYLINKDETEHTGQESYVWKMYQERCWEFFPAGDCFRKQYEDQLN
T2 sequence (E9Q401 whole entry R4495C): as the sequence (E9Q401 whole entry N4103K) above, with K4103N, R4495C counted along it
T3 sequence (E9Q401 whole entry R4495C): as the sequence (E9Q401 whole entry N4103K) above, with K4103N, R4495C counted along it
T4 sequence (E9Q401 whole entry R4495C): as the sequence (E9Q401 whole entry N4103K) above, with K4103N, R4495C counted along it

As to `COc1ccccc1OCCN1CCOC(COc2cccc3[nH]c4ccccc4c23)C1` (stereo not shown) [Compound 3a], the “suppression of SOICR” value in the test on RyR2 was “limited effect”.

`COc1ccccc1OCCN1CC(COc2cccc3[nH]c4ccccc4c23)OC1=O` (stereo not shown) [Compound 4a]: in the test on RyR2, the “suppression of SOICR” value is given as “limited effect”.

With `CC/C=C\C/C=C\C/C=C\C/C=C\C/C=C\C/C=C\CCC(=O)O` [DHA, docosahexenoic acid], at RyR2 channel [1], the “effect on RyR2 channel activity” value is recorded as “inhibit RyR2 channel activity”.

With `COc1ccccc1OCCNCC(O)COc1cccc2[nH]c3ccccc3c12` (stereo not shown) [Carvedilol], the “absolute reduction in mortality” value in test [2] is on record as roughly 7%. In addition, the IC50 (in general, the midpoint of a concentration-inhibition curve) was roughly 10 µM in test [3] (read-out: IC50 for suppressing SOICR), roughly 10 µM in test [3] (read-out: IC50 for suppressing the frequency of SOICR) and 0.001 to 0.002 µM at β-adrenergic receptors. Also, the “concentration that abolishes SOICR” value in test [3] (rat ventricular myocytes, 10 mM extracellular Ca2+) came out at 50 µM. Besides, the “concentration that completely blocks the β-adrenergic receptor” value in the test with β-adrenergic receptor turned out to be 100 nM. Moreover, in the test on RyR2-R4496C KI mice, the “ventricular tachycardia after epinephrine (2 mg/kg) and caffeine (120 mg/kg)” value is “abolish epinephrine and caffeine-induced ventricular tachycardia; also recorded: no VT was observed”.

For `OC(CNCCOC1CCCCC1)COc1cccc2[nH]c3ccccc3c12` (stereo not shown) [Compound 1d], in the test on RyR2, the “suppression of SOICR” value was “inactive; also recorded: limited effect”.

For the molecule `COc1ccccc1OCCN1CC(COc2cccc3[nH]c4ccccc4c23)OCC1=O` (stereo not shown) [Compound 2a], the “β-blocking activity (block of isoproterenol-induced RyR2 S2030 phosphorylation)” value in the test with β-adrenergic receptor (1-1000 nM, preliminary, listed as VK-II-36) is reported as “little β-blocking activity; also recorded: does not block the β-adrenergic receptor”. In addition, at RyR2-N4104K mutant (HEK293 RyR2-N4104K, 2 mM [Ca2+]o, various concentrations), the “effect on SOICR” value was “abolish SOICR”. Besides, at RyR2-N4104K mutant (HEK293 cells (FIG. 5)), the “concentration at which SOICR is suppressed” value was roughly 30 µM. For the same molecule, in the test with RyR2-R4496C KI mice (listed as VK-II-36), the “ventricular tachycardia after epinephrine (2 mg/kg) and caffeine (120 mg/kg)” value is “abolish epinephrine and caffeine-induced ventricular tachycardia; also recorded: no VT was observed”.

Consider `c1ccc2c(c1)[nH]c1cccc(OCC3CN(CCOC4CCCCC4)CCO3)c12` (stereo not shown) [Compound 3d], for which the “suppression of SOICR” value with RyR2 is recorded as “limited effect”.

`COc1cc(Cl)c(Cl)cc1OCCNCC(O)COc1cccc2[nH]c3ccccc3c12` (stereo not shown) [Compound 1b]: in the test on β-adrenergic receptor, the “concentration that completely blocks the β-adrenergic receptor” value is given as 100 nM. The “suppression of SOICR” value in the test on RyR2 is recorded as “activity comparable to that of carvedilol (1a)”.

`CC/C=C\C/C=C\C/C=C\C/C=C\C/C=C\CCCC(=O)O` [EPA, eicosapentenoic acid]: the “effect on RyR2 channel activity” value on RyR2 channel [1] is on record as “inhibit RyR2 channel activity”.

For the molecule `OC(CNCCOc1cc(Cl)c(Cl)cc1Cl)COc1cccc2[nH]c3ccccc3c12` (stereo not shown) [Compound 1c], the “suppression of SOICR” value in the test on RyR2 was “inactive”.

As to `CC(C)NCC(O)c1ccc(NS(C)(=O)=O)cc1` (stereo not shown) [Sotalol, sotalol], the “effect on SOICR” value at RyR2-R4496C mutant is listed as “no significant effect; also recorded: not sotalol inhibited SOICR”; in test [3] (rat ventricular myocytes, up to 300 μM), “no effect; also recorded: does not suppress SOICR at all”. Further, the “effect on basal channel activity ([3H]ryanodine binding)” value on mutant RyR2 channels (cell lysates, 3 nM Ca2+, various concentrations of drugs (FIG. 4C)) is recorded as “not sotalol, inhibited basal channel activity”. Also, the “effect on channel activity of RyR2” value on mutant RyR2 channels (summary statement) was “absolutely no effect on RyR2”. In addition, at RyR2 channel [4], the “effect on Ca2+ dependence of [3H]ryanodine binding / sensitivity of RyR2 to Ca2+ activation” value is on record as “no significant effect”.
